Key:
[1] = tested on: Candida albicans A9540; assay: in vivo antifungal activity against C. albicans A9540 intravenous infection in mice; parameters: species or system male ICR mice; conditions: for ED50: Candida albicans, A9540, 480 h, intravenous, from survival rates on the 20th day, read-out: PD50 (dose that protects 50% of the animals from infection); for Number of survivors/tested: 20th day
Protocol: In vivo activity of BU-3608 E was tested against Candida albicans A9540 infection in mice. Test organisms were cultured for 18 hours at 28° C. in YGP medium (yeast extract, glucose, peptone, K2 HPO4, MgSO4) and then suspended in saline. Male ICR mice weighing 20 to 24 g were infected intravenously with about 10 times the median lethal dose of the test fungus. The antibiotic at various dose levels was administered to groups of 5 mice each intravenously just after the fungal infection. The dose that protects 50% of the animals from infection (PD50, mg/kg) was calculated from survival rates recorded on the 20th day after the fungal challenge. All control animals died within 7 to 15 days after infection. The PD50 for BU-3608 D against the same organism and using the same test protocol as described above is 9 mg/kg/inj.

[2] = acute toxicity in mice after single intravenous administration; conditions: mouse, in vivo
Protocol: The acute toxicity of BU-3608 D was determined in mice after single intraveneous administration.

Structure (SMILES)	ED50 [1] [mg/kg]	LD50 [2] [mg/kg]	Number of survivors/tested ([1]; 1.6 mg/kg/inj. intravenously just after infection)	Number of survivors/tested ([1]; 3.1 mg/kg/inj. intravenously just after infection)	Number of survivors/tested ([1]; 6.3 mg/kg/inj. intravenously just after infection)	Number of survivors/tested ([1]; 12.5 mg/kg/inj. intravenously just after infection)	Number of survivors/tested ([1]; 25 mg/kg/inj. intravenously just after infection)	Number of survivors/tested ([1]; 50 mg/kg/inj. intravenously just after infection)
CN[C@@H]1[C@H](O[C@@H]2OC[C@@H](O)[C@H](O)[C@H]2O)[C@@H](O)[C@H](O[C@H]2c3cc(C)c(C(=O)NCC(=O)O)c(O)c3-c3c(cc4c(c3O)C(=O)c3cc(OC)cc(O)c3C4=O)[C@@H]2O)O[C@@H]1C [BU-3608 D]	9	210						
COc1cc(O)c2c(c1)C(=O)c1c(cc3c(c1O)-c1c(cc(C)c(C(=O)NCC(=O)O)c1O)[C@H](O[C@@H]1O[C@H](C)[C@H](N)[C@H](O[C@@H]4OC[C@@H](O)[C@H](O)[C@H]4O)[C@H]1O)[C@H]3O)C2=O [BU-3608 E]	8.9		0/5	0/5	1/5	4/5	5/5	5/5
